Measured values reported in patent US12071424B2, “IRE1 small molecule inhibitors” (Cornell University, priority 2017, dated 2024).

Legend:
IRE1a [1] = target: T1, IRE1a (Homo sapiens, UniProt O75460); test: In vitro FRET assay (IRE1a cleavage of XBP1 RNA probe); type: biochemical; settings: 2 nM SignalChem IRE1a, tested as Formic Acid Salt (37: HCl Salt)
T1 construct: purchased SignalChem
How it was run: Human

IRE1a [2] = test: IRE1a Endoribonuclease Nanoluciferase Assay (XBP1 luciferase reporter in 293T cells); type: cell-based, human; settings: Homo sapiens, HEK-293T, ER stressor, tested as Formic Acid Salt (37: HCl Salt)
Description: Compounds disclosed herein assessed for disruption of IRE1 signaling using a IRE1a Endoribonuclease Nanoluciferase Assay. Briefly, 25×10^5 293T cells were seeded in a 10 cm^2 tissue culture plate. About 24 hours later, the cells were transfected with Effectene. In a 15 mL tube, the following was added: 2 ug XBP1 luciferase reporter plasmid (PGK-Luc2-P2A-XBP1u-Nanoluciferase-Pest); 300 ul EC buffer; and 16 ul Enhancer, followed by incubation at room temp for 5 minutes. Next, 60 ul Effectene (Qiagen 301427) was added, followed by incubation at room temperature for 10 minutes. 2.6 mL cDMEM media was added. Old media was aspirated from the cells, followed by addition of 7 mL fresh media. Full transfection mixture was added dropwise to cells. Cells were incubated for 6 hours, followed by trypsinization, centrifugation and resuspension in 11 mL fresh cDMEM media. 100 uL of cells were plated per a well in a 96 well plate. A day later, ER stressors of choice +/−inhibitors were added. To harvest, media was aspirated from cells completely, then 50 uL 1× passive lysis buffer (Promega: E1941) was added per well and put on shaker (300 rpm) for 30 minutes at room temperature. Cells were centrifuged, and 15 uL sample per well was added to a new, opaque white 384 well plate (Corning 3570). 15 uL OneGlo (nanoluciferase kit, Promega N1630) was added. Plates were spun down, placed on shaker (300 rpm) for 10 minutes. Plates were read on luminometer, 1000 ms integration time per well. 15 uL Stop an Glo (nanoluciferase kit) was added. Plates were spun down, placed on shaker (300 rpm) for 10 minutes. Plates were read on luminometer, 1000 ms second integration time per well. Recordings are provided below in Table 4.

T1 sequence (O75460 19-977): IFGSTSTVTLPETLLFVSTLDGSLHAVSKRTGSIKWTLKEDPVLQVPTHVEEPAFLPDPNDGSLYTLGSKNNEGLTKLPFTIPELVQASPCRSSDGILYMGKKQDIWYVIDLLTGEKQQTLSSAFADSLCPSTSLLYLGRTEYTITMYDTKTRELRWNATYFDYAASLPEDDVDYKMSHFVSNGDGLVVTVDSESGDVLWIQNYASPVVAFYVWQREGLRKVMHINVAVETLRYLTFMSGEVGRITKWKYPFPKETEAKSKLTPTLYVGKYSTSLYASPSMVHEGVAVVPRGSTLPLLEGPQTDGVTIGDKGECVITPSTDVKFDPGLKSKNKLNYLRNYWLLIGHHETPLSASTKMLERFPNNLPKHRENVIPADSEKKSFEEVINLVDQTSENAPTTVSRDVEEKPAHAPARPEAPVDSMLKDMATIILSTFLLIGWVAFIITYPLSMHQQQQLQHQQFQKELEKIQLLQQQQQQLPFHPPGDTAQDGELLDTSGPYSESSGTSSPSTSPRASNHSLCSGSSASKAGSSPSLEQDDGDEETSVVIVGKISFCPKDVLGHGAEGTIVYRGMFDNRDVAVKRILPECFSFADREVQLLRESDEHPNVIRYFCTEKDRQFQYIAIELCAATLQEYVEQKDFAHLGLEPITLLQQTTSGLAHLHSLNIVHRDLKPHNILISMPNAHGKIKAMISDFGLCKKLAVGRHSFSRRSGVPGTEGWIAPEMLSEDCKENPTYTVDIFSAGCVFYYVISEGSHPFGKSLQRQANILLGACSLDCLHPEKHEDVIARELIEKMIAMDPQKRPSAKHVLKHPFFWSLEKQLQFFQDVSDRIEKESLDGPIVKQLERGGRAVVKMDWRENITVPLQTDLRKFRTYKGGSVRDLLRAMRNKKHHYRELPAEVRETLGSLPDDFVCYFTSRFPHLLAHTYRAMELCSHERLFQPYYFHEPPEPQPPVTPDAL

Row | Compound | IC50 (IRE1a [1]) [nM] | EC50 (IRE1a [2]) [nM]
1 | COc1nc(NS(=O)(=O)c2ccccc2Cl)ccc1-c1cc(C(C)(F)F)c2nc(N[C@H]3CC[C@H](N(C)C)CC3)ncc2c1 [Compound 124, 2-chloro-N-(5-(8-(1,1-difluoroethyl)-2-(((1r,4r)-4-(dimethylamino)cyclohexyl)amino)quinazolin-6-yl)-6-methoxypyridin-2-yl)benzenesulfonamide] | ≤ 5 | ≤ 5
2 | CCc1cc(-c2cc(F)c(NS(=O)(=O)c3ccccc3Cl)nc2OC)cc2cnc(N[C@H]3CC[C@H](NC)CC3)nc12 [Compound 127, 2-chloro-N-(5-(8-ethyl-2-(((1r,4r)-4-(methylamino)cyclohexyl)amino)quinazolin-6-yl)-3-fluoro-6-methoxypyridin-2-yl)benzenesulfonamide] | ≤ 5 | ≤ 5
3 | CCc1cc(-c2cc(F)c(NS(=O)(=O)c3ccccc3Cl)nc2OC)cc2cnc(N[C@H]3CC[C@H](N(C)C)CC3)nc12 [Compound 128, 2-chloro-N-(5-(2-(((1r,4r)-4-(dimethylamino)cyclohexyl)amino)-8-ethylquinazolin-6-yl)-3-fluoro-6-methoxypyridin-2-yl)benzenesulfonamide] | ≤ 5 | ≤ 5
4 | CCc1cc(-c2ccc(NS(=O)(=O)c3ccccc3Cl)nc2C)cc2cnc(N[C@H]3CC[C@H](N(C)CC4CCC4)CC3)nc12 [Compound 130, 2-chloro-N-(5-(2-(((1r,4r)-4-((cyclobutylmethyl)(methyl)amino)cyclohexyl)amino)-8-ethylquinazolin-6-yl)-6-methylpyridin-2-yl)benzenesulfonamide] | ≤ 5 | ≤ 5
5 | COc1nc(NS(=O)(=O)c2ccccc2Cl)ccc1-c1cc(C)c2nc(N[C@H]3CC[C@H](N(C)C)CC3)ncc2c1 [Compound 133, 2-chloro-N-(5-(2-(((1r,4r)-4-(dimethylamino)cyclohexyl)amino)-8-methylquinazolin-6-yl)-6-methoxypyridin-2-yl)benzenesulfonamide] | ≤ 5 | ≤ 5
6 | COc1nc(NS(=O)(=O)c2ccccc2Cl)ccc1-c1cc(C(F)(F)F)c2nc(N[C@H]3CC[C@H](N(C)C)CC3)ncc2c1 [Compound 135, 2-chloro-N-(5-(2-(((1r,4r)-4-(dimethylamino)cyclohexyl)amino)-8-(trifluoromethyl)quinazolin-6-yl)-6-methoxypyridin-2-yl)benzenesulfonamide] | ≤ 5 | ≤ 5
7 | COCc1cc(-c2ccc(NS(=O)(=O)c3ccccc3Cl)nc2OC)cc2cnc(N[C@H]3CC[C@H](N(C)C)CC3)nc12 [Compound 137, 2-chloro-N-(5-(2-(((1r,4r)-4-(dimethylamino)cyclohexyl)amino)-8-(methoxymethyl)quinazolin-6-yl)-6-methoxypyridin-2-yl)benzenesulfonamide] | ≤ 5 | ≤ 5
8 | COc1nc(NS(=O)(=O)c2ccccc2Cl)c(F)cc1-c1cc(C)c2nc(N[C@H]3CC[C@H](N(C)C)CC3)ncc2c1 [Compound 145, 2-chloro-N-(5-(2-(((1r,4r)-4-(dimethylamino)cyclohexyl)amino)-8-methylquinazolin-6-yl)-3-fluoro-6-methoxypyridin-2-yl)benzenesulfonamide] | ≤ 5 | ≤ 5
9 | COc1nc(NS(=O)(=O)c2ccccc2Cl)ccc1-c1cc(F)c2nc(N[C@H]3CC[C@H](N(C)C)CC3)ncc2c1 [Compound 148, 2-chloro-N-(5-(2-(((1r,4r)-4-(dimethylamino)cyclohexyl)amino)-8-fluoroquinazolin-6-yl)-6-methoxypyridin-2-yl)benzenesulfonamide] | ≤ 5 | ≤ 5
10 | COc1nc(NS(=O)(=O)c2ccccc2Cl)c(F)cc1-c1ccc2nc(N[C@H]3CC[C@H](N(C)C)CC3)ncc2c1 [Compound 149, 2-chloro-N-(5-(2-(((1r,4r)-4-(dimethylamino)cyclohexyl)amino)quinazolin-6-yl)-3-fluoro-6-methoxypyridin-2-yl)benzenesulfonamide] | ≤ 5 | 5 to 50
11 | CN[C@H]1CC[C@H](Nc2ncc3cc(-c4cc(F)c(NS(=O)(=O)c5ccccc5Cl)nc4OC)ccc3n2)CC1 [Compound 150, 2-chloro-N-(3-fluoro-6-methoxy-5-(2-(((1r,4r)-4-(methylamino)cyclohexyl)amino)quinazolin-6-yl)pyridin-2-yl)benzenesulfonamide] | ≤ 5 | 5 to 50
12 | Cc1nc(NS(=O)(=O)c2ccccc2Cl)c(F)cc1-c1ccc2nc(N[C@H]3CC[C@H](N(C)C)CC3)ncc2c1 [Compound 153, 2-chloro-N-(5-(2-(((1r,4r)-4-(dimethylamino)cyclohexyl)amino)quinazolin-6-yl)-3-fluoro-6-methylpyridin-2-yl)benzenesulfonamide] | ≤ 5 | 5 to 50
13 | CCc1cc(-c2cnc(NS(=O)(=O)c3ccccc3Cl)nc2OC)cc2cnc(N[C@H]3CC[C@H](N(C)C)CC3)nc12 [Compound 154, 2-chloro-N-(5-(2-(((1r,4r)-4-(dimethylamino)cyclohexyl)amino)-8-ethylquinazolin-6-yl)-4-methoxypyrimidin-2-yl)benzenesulfonamide] | ≤ 5 | ≤ 5
14 | COc1nc(NS(=O)(=O)c2ccccc2Cl)c(F)cc1-c1cc(F)c2nc(N[C@H]3CC[C@H](N(C)C)CC3)ncc2c1 [Compound 155, 2-chloro-N-(5-(2-(((1r,4r)-4-(dimethylamino)cyclohexyl)amino)-8-fluoroquinazolin-6-yl)-3-fluoro-6-methoxypyridin-2-yl)benzenesulfonamide] | ≤ 5 | 50 to 100
15 | CCc1cc(-c2ncc(NS(=O)(=O)c3ccccc3Cl)nc2OC)cc2cnc(N[C@H]3CC[C@H](N(C)C)CC3)nc12 [Compound 157, 2-chloro-N-(5-(2-(((1r,4r)-4-(dimethylamino)cyclohexyl)amino)-8-ethylquinazolin-6-yl)-6-methoxypyrazin-2-yl)benzenesulfonamide] | ≤ 5 | ≤ 5

Further lines, results first:

Row | IC50 (IRE1a [1]) [nM] | EC50 (IRE1a [2]) [nM] | Compound
16 | ≤ 5 | ≤ 5 | CCc1cc(-c2ccc(NS(=O)(=O)c3ccccc3C)nc2OC)cc2cnc(N[C@H]3CC[C@H](N(C)C)CC3)nc12 [Compound 119, N-(5-(2-(((1r,4r)-4-(dimethylamino)cyclohexyl)amino)-8-ethylquinazolin-6-yl)-6-methoxypyridin-2-yl)-2-methylbenzenesulfonamide]
17 | ≤ 5 | ≤ 5 | CCc1cc(-c2ccc(NS(=O)(=O)c3ccccc3Cl)nc2C)cc2cnc(N[C@H]3CC[C@H](NC)CC3)nc12 [Compound 122, 2-chloro-N-(5-(8-ethyl-2-(((1r,4r)-4-(methylamino)cyclohexyl)amino)quinazolin-6-yl)-6-methylpyridin-2-yl)benzenesulfonamide]
18 | ≤ 5 | ≤ 5 | CCc1cc(-c2ccc(NS(=O)(=O)c3ccccc3Cl)nc2C)cc2cnc(N[C@H]3CC[C@H](N(C)CC)CC3)nc12 [Compound 125, 2-chloro-N-(5-(8-ethyl-2-(((1r,4r)-4-(ethyl(methyl)amino)cyclohexyl)amino)quinazolin-6-yl)-6-methylpyridin-2-yl)benzenesulfonamide]
19 | ≤ 5 | ≤ 5 | Cc1nc(NS(=O)(=O)c2ccccc2Cl)ccc1-c1cc(C(C)(F)F)c2nc(N[C@H]3CC[C@H](N(C)C)CC3)ncc2c1 [Compound 131]
20 | ≤ 5 | ≤ 5 | CCc1cc(-c2ccc(NS(=O)(=O)c3ccccc3Cl)nc2C)cc2cnc(N[C@H]3CC[C@H](N(C)CCOC)CC3)nc12 [Compound 132, 2-chloro-N-(5-(8-ethyl-2-(((1r,4r)-4-((2-methoxyethyl)(methyl)amino)cyclohexyl)amino)quinazolin-6-yl)-6-methylpyridin-2-yl)benzenesulfonamide]
21 | ≤ 5 | 100 to 10000 | CCc1cc(-c2ccc(NS(=O)(=O)c3ccccc3Cl)nc2OC)cc2cnc(N[C@H]3CC[C@@H](N(C)C)CC3)nc12 [Compound 141, 2-chloro-N-(5-(2-(((1s,4s)-4-(dimethylamino)cyclohexyl)amino)-8-ethylquinazolin-6-yl)-6-methoxypyridin-2-yl)benzenesulfonamide]
22 | ≤ 5 | ≤ 5 | CCc1cc(-c2ccc(NS(=O)(=O)c3cccc(Cl)c3Cl)nc2C)cc2cnc(N[C@H]3CC[C@H](N(C)C)CC3)nc12 [Compound 152, 2,3-dichloro-N-(5-(2-(((1r,4r)-4-(dimethylamino)cyclohexyl)amino)-8-ethylquinazolin-6-yl)-6-methylpyridin-2-yl)benzenesulfonamide]
23 | ≤ 5 | ≤ 5 | CCc1cc(-c2ccc(NS(=O)(=O)c3cccc(F)c3Cl)nc2C)cc2cnc(N[C@H]3CC[C@H](N(C)C)CC3)nc12 [Compound 158, 2-chloro-N-(5-(2-(((1r,4r)-4-(dimethylamino)cyclohexyl)amino)-8-ethylquinazolin-6-yl)-6-methylpyridin-2-yl)-3-fluorobenzenesulfonamide]
